PMC12257509, “New Generation Modified Azole Antifungals against Multidrug-Resistant” (Journal of Medicinal Chemistry, 2025)
Like-named read-outs stand apart in the source and are kept apart here.

Target: T1, CYP51 (CaCYP51), lanosterol 14α-demethylase (Candida albicans, UniProt P10613)
T1 construct: gene ERG11; recombinant CaCYP51
Assay: CYP51 reconstitution assay with CPR and NADPH, GC-MS of demethylated sterols
Format: biochemical

T1 sequence (P10613 whole entry): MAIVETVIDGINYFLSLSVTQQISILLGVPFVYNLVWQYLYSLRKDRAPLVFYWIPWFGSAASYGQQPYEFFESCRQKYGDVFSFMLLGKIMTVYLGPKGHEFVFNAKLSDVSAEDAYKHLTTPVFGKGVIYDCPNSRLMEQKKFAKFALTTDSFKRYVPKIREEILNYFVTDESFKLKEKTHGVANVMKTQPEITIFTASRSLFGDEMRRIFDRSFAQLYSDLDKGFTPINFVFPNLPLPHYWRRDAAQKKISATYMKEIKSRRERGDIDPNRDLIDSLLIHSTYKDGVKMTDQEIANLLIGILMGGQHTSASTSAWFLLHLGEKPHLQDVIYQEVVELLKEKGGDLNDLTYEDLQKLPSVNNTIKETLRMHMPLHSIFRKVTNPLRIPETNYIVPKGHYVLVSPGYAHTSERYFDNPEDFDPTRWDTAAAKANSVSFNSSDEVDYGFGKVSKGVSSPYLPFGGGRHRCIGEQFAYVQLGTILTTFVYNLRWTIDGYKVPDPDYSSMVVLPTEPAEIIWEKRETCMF

Row | Compound | IC50 [nM] | IC50 (read-out: IC50) [nM]
1 | OC(CN1CCC(Nc2ncc(F)cn2)CC1)(Cn1cncn1)c1ccc(F)cc1F (racemic) [compound 7, 2-(2,4-Difluorophenyl)-1-(4-((5-fluoropyrimidin-2-Yl)-amino)-piperidin-1-Yl)-3-(1h-1,2,4-triazol-1-Yl)-propan-2-Ol] | ~400 | 
2 | OC(Cn1cncn1)(Cn1cncn1)c1ccc(F)cc1F [fluconazole] |  | ~600
